One series has as its system HIV-1NL4-3. Put plainly: In vitro antiviral assay (p24 ELISA) in PHA-stimulated human PBMCs. The conditions noted are these: for IC50: read-out: NL4-3 Antiviral (PBMC) IC50; for IC90: read-out: NL4-3 Antiviral (PBMC) IC90.
The subject of series [1] is PHA-stimulated human PBMCs. Put plainly: Cytotoxicity assay (MTT) in uninfected PBMCs. Type of series: cell-based.
[2] abbreviates: Human immunodeficiency virus 1, NL43, PBMC, in Homo sapiens, 168 h.
[3] abbreviates: PHA-stimulated human PBMCs, 7 days, p24 ELISA.

From publication PMC9611370 (Viruses, 2022) come the findings set out here.

Molecules are shown by their SMILES. Like-named read-outs stand apart in the source and are kept apart here. Bounds are passed on as bounds.

For the compound `COc1cnc(-n2cnc(C)n2)c2[nH]cc(C(=O)C(=O)N3CCN(C(=O)c4ccccc4)CC3)c12` [BMS-626529], in the series with HIV-1NL4-3 (setting [2]), the IC50 turned out to be 280 nM and the IC90 is greater than 10000 nM. In addition, the “cytotoxicity better than NBD-14189” value in series [1] (PBMC, compared with NBD-14189) is “about 3 fold”.
Turning to `C#C[C@]1(CO)O[C@@H](n2cnc3c(N)nc(F)nc32)C[C@@H]1O` [EFdA], the “SI CC50/IC50” value in the series on HIV-1NL4-3 (PBMC CC50 / NL4-3 IC50) is listed as 13,000. In addition, in the series on HIV-1NL4-3 (setting [3]), the 50% inhibitory concentration (IC50) turned out to be 1.7 nM and the 90% effect concentration (IC90) is greater than 66 nM. Further, the CC50 in series [1] (uninfected PBMCs, MTT, day 7, read-out: PBMC Toxicity CC50) was found to be 23000 nM. For the same compound, the CC90 in series [1] (uninfected PBMCs, MTT, day 7, read-out: PBMC Toxicity CC90) is greater than 100000 nM.
